Like-named read-outs stand apart in the source and are kept apart here. Starred links: 1 amine or outer side, 2 acyl side, 3 side chain; linkers in the order of their positions; H or OH if unused. Non-standard residues stand in square brackets, D forms with d. Groups on a side chain read outwards from the residue. No end group written: not given here. *: point of attachment. C20 diacid = O=C(O)CCCCCCCCCCCCCCCCCCC(=O)*; C18 diacid = O=C(O)CCCCCCCCCCCCCCCCC(=O)*; γGlu = O=C(O)[C@H](CCC(=O)[*:2])N[*:1]; εLys = N[C@@H](CCCCN[*:1])C(=O)[*:2]; β3hQ = NC(=O)CC[C@H](N)CC(=O)O; AEEA = NCCOCCOCC(=O)O; Aib = CC(C)(N)C(=O)O
How the values were obtained:
Type in all cases: cell-based
Conditions in all cases: CreLuc reporter gene assay
hGLP1R = target: T1, hGLP1R (Homo sapiens, UniProt P43220); assay: hGLP1R CreLuc reporter gene assay in 0.5% and 100% plasma
T1 construct: expressed in transfected cells; host or cells: HEK-293 cells carrying a CRE-luciferase reporter gene
In short: (§1)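 Agonist EC50s came from 8-concentration curves over four decades, fitted by non-linear variable-slope regression of CRE-driven luciferase luminescence. Cells were exposed 4 h at 37 °C, in buffer with 0.5% human plasma or in 100% plasma; GIPR was expressed in CHO cells, GLP-1R and NPY2R in HEK cells.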

hGIPR = target: T2, hGIPR (Homo sapiens, UniProt P48546); assay: hGIPR CreLuc reporter gene assay in 0.5% and 100% plasma
T2 construct: expressed in transfected cells; host or cells: CHO cells carrying a CRE-luciferase reporter gene
T2 sequence (P48546 22-466): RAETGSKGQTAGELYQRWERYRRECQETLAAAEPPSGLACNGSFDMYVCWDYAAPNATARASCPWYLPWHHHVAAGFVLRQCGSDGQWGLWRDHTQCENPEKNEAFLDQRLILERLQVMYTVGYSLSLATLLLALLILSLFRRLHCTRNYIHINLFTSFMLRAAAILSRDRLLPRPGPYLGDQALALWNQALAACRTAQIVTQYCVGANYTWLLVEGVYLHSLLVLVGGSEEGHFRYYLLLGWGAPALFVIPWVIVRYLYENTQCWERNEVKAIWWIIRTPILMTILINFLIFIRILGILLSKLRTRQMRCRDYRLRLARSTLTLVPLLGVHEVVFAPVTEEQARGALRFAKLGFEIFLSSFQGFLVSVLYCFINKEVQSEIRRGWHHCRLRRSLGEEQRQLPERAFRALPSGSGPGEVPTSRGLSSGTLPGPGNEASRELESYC
In short: as §1

hNPY2R = target: T3, hNPY2R (Homo sapiens, UniProt P49146); assay: hNPY2R CreLuc reporter gene assay in 0.5% and 100% plasma
T3 construct: expressed in transfected cells; host or cells: HEK-293 cells carrying a CRE-luciferase reporter gene
T3 sequence (P49146 1-381): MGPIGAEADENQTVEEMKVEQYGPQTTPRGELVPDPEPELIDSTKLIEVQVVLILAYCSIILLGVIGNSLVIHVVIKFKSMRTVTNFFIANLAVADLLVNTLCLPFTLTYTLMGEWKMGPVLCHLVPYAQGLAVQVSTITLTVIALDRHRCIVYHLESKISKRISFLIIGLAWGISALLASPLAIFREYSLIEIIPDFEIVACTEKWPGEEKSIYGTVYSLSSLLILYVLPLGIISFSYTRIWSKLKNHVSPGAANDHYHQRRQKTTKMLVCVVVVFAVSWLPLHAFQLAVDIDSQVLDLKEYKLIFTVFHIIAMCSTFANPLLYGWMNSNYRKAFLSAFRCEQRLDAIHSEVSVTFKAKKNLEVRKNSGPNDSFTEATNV
In short: as §1

[1] = 0.5% human plasma, read-out: hGLP1R 0.5% hP
[2] = 100% human plasma, read-out: hGLP1R 100% hP
[3] = 0.5% human plasma, read-out: hGIPR 0.5% hP
[4] = 100% human plasma, read-out: hGIPR 100% hP
[5] = 0.5% human plasma, read-out: hNPY2R 0.5% hP
[6] = 100% human plasma, read-out: hNPY2R 100% hP

T1 sequence (P43220 24-463): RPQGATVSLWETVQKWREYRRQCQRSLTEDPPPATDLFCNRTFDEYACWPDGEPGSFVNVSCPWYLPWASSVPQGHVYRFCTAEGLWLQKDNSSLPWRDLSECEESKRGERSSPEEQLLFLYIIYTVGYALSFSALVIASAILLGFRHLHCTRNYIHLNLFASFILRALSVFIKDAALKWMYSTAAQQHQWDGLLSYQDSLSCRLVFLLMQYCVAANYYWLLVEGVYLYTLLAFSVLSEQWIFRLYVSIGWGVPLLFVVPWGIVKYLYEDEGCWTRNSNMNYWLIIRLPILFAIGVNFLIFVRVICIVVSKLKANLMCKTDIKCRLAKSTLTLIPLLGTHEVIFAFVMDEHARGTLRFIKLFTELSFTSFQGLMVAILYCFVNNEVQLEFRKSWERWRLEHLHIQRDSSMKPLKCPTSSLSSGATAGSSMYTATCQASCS

Row | Molecule | EC50 (hGLP1R; [1]) [nM] | EC50 (hGLP1R; [2]) [nM] | EC50 (hGIPR; [3]) [nM] | EC50 (hGIPR; [4]) [nM] | EC50 (hNPY2R; [5]) [nM] | EC50 (hNPY2R; [6]) [nM]
1 | H-Y[Aib]EGTFTSDYSI[Aib]LEEQAQ[Aib]AFVEWLIK([εLys-AEEA-γGlu-γGlu-γGlu-γGlu-γGlu-C20 diacid])GGPSSGASLRHYYNWLTRQRY-NH2 [Compound 110, Y-Aib-E-G-T-F-T-S-D-Y-S-I-Aib-L-E-E-Q-A-Q-Aib-A-F-V-E-W-L-I-K(1,3)-GGPSSGASLRHYYNWLTRQRY-NH2.C20DA-gGlu-gGlu-gGlu-gGlu-gGlu-OEG-eLys(1,2)] | 0.15 | – | 0.15 | 1.14 | 17.5 | –
2 | H-Y[Aib]EGTFTSDYSI[Aib]LEKQAQ[Aib]AFVEWLIK([εLys-γGlu-γGlu-γGlu-γGlu-γGlu-γGlu-C20 diacid])GGPSSGASLRHYINWLTRQRY-NH2 [Compound 106, Y-Aib-E-G-T-F-T-S-D-Y-S-I-Aib-L-E-K-Q-A-Q-Aib-A-F-V-E-W-L-I-K(1,3)-GGPSSGASLRHYINWLTRQRY-NH2.C20DA-gGlu-gGlu-gGlu-gGlu-gGlu-gGlu-eLys(1,2)] | 0.14 | – | 0.26 | – | 20.5 | –
3 | H-Y[Aib]EGTFTSDYSI[Aib]LEKQAQ[Aib]AFVEWLIK([εLys-γGlu-γGlu-γGlu-γGlu-γGlu-γGlu-C20 diacid])GGPSSGASLRHYYNWLTR[β3hQ]RY-NH2 [Compound 208, Y-Aib-E-G-T-F-T-S-D-Y-S-I-Aib-L-E-K-Q-A-Q-Aib-A-F-V-E-W-L-I-K(1,3)-G-G-P-S-S-G-A-S-L-R-H-Y-Y-N-W-L-T-R-bHGln-R-Y-NH2.C20DA-gGlu-gGlu-gGlu-gGlu-gGlu-gGlu-eLys(1,2)] | 0.11 | – | 0.07 | 0.81 | > 100 | > 1000
4 | H-Y[Aib]EGTFTSDYSI[Aib]LEKQAQ[Aib]EFVEWLIK([AEEA-AEEA-γGlu-γGlu-γGlu-C18 diacid])GGPSSGASLRHYYNWLTRQRY-NH2 [Compound 171, Y-Aib-E-G-T-F-T-S-D-Y-S-I-Aib-L-E-K-Q-A-Q-Aib-E-F-V-E-W-L-I-K(1,3)-GGPSSGASLRHYYNWLTRQRY-NH2.C18DA-gGlu-gGlu-gGlu-OEG-OEG(1,2)] | 0.27 | 4.17 | 0.2 | 0.83 | – | 30.4

Next, values leading:

Row | EC50 (hGLP1R; [1]) [nM] | EC50 (hGLP1R; [2]) [nM] | EC50 (hGIPR; [3]) [nM] | EC50 (hGIPR; [4]) [nM] | EC50 (hNPY2R; [5]) [nM] | EC50 (hNPY2R; [6]) [nM] | Molecule
5 | 0.13 | 1.78 | 0.19 | 1.25 | 17.8 | – | CC[C@H](C)[C@H](NC(=O)[C@H](CC(C)C)NC(=O)[C@H](Cc1c[nH]c2ccccc12)NC(=O)[C@H](CCC(N)=O)NC(=O)[C@@H](NC(=O)[C@H](Cc1ccccc1)NC(=O)[C@H](C)NC(=O)C(C)(C)NC(=O)[C@H](CCC(N)=O)NC(=O)[C@H](C)NC(=O)[C@H](CCC(N)=O)NC(=O)[C@H](CCCCN)NC(=O)[C@H](CCC(=O)O)NC(=O)[C@H](CC(C)C)NC(=O)C(C)(C)NC(=O)[C@@H](NC(=O)[C@H](CO)NC(=O)[C@H](Cc1ccc(O)cc1)NC(=O)[C@H](CC(=O)O)NC(=O)[C@H](CO)NC(=O)[C@@H](NC(=O)[C@H](Cc1ccccc1)NC(=O)[C@@H](NC(=O)CNC(=O)[C@H](CCC(=O)O)NC(=O)C(C)(C)NC(=O)[C@@H](N)Cc1ccc(O)cc1)[C@@H](C)O)[C@@H](C)O)[C@@H](C)CC)C(C)C)C(=O)N[C@@H](CCCCNC(=O)[C@@H](N)CCCCNC(=O)[C@H](CCC(=O)O)NC(=O)[C@H](CCC(=O)O)NC(=O)[C@H](CCC(=O)O)NC(=O)[C@H](CCC(=O)O)NC(=O)[C@H](CCC(=O)O)NC(=O)[C@H](CCC(=O)O)NC(=O)CCCCCCCCCCCCCCCCC(=O)O)C(=O)NCC(=O)NCC(=O)N1CCC[C@H]1C(=O)N[C@@H](CO)C(=O)N[C@@H](CCC(=O)O)C(=O)NCC(=O)N[C@@H](C)C(=O)N[C@@H](CO)C(=O)N[C@@H](CC(C)C)C(=O)N[C@@H](CCCNC(=N)N)C(=O)N[C@@H](Cc1c[nH]cn1)C(=O)N[C@@H](Cc1ccc(O)cc1)C(=O)N[C@@H](Cc1ccc(O)cc1)C(=O)N[C@@H](CC(N)=O)C(=O)N[C@@H](Cc1c[nH]c2ccccc12)C(=O)N[C@@H](CC(C)C)C(=O)N[C@H](C(=O)N[C@@H](CCCNC(=N)N)C(=O)N[C@@H](CCC(N)=O)C(=O)N[C@@H](CCCNC(=N)N)C(=O)N[C@@H](Cc1ccc(O)cc1)C(N)=O)[C@@H](C)O [Compound 249, Y-Aib-E-G-T-F-T-S-D-Y-S-I-Aib-L-E-K-Q-A-Q-Aib-A-F-V-Q-W-L-I-K(1,3)-GGPSEGASLRHYYNWLTRQRY-NH2.C18DA-E-E-E-E-E-E-eLys(1,2)]
6 | 0.24 | – | 0.32 | – | 13.7 | 46.3 | Y[Aib]EGTFTSDYSI[Aib]LEKQAQ[Aib]AFVQWLIK([AEEA-AEEA-γGlu-γGlu-γGlu-γGlu-C20 diacid])GGPEEPASLRHYYNWLTRQRY-NH2 [Compound 77, Y-Aib-E-G-T-F-T-S-D-Y-S-I-Aib-L-E-K-Q-A-Q-Aib-A-F-V-Q-W-L-I-K(1,3)-GGPEEPASLRHYYNWLTRQRY-NH2.C20DA-gGlu-gGlu-gGlu-gGlu-OEG-OEG(1,2)]
7 | 0.29 | – | 0.65 | 2.81 | 18.3 | – | H-Y[Aib]EGTFTSDYSI[Aib]LEKQAQ[Aib]AFVEWLIK([γGlu-γGlu-γGlu-γGlu-γGlu-γGlu-C20 diacid])GGPSEGASLRHYYNWLTRQRY-NH2 [Compound 305, Y-Aib-E-G-T-F-T-S-D-Y-S-I-Aib-L-E-K-Q-A-Q-Aib-A-F-V-E-W-L-I-K(1,3)-GGPSEGASLRHYYNWLTRQRY-NH2.C20DA-gGlu-gGlu-gGlu-gGlu-gGlu-gGlu(1,2)]
8 | 0.22 | 7.71 | 0.24 | – | 14 | – | H-Y[Aib]EGTFTSDYSI[Aib]LEKQAE[Aib]AFVQWLIK([εLys-γGlu-γGlu-γGlu-γGlu-C18 diacid])GGPSEPASLRHYYNWLTRQRY-NH2 [Compound 54, Y-Aib-E-G-T-F-T-S-D-Y-S-I-Aib-L-E-K-Q-A-E-Aib-A-F-V-Q-W-L-I-K(1,3)-GGPSEPASLRHYYNWLTRQRY-NH2.C18DA-gGlu-gGlu-gGlu-gGlu-eLys(1,2)]
9 | 0.17 | – | 0.21 | 1.72 | 16.2 | 53.1 | H-Y[Aib]EGTFTSDYSI[Aib]LEKQAQ[Aib]AFVEWLIK([εLys-γGlu-γGlu-γGlu-γGlu-γGlu-γGlu-C20 diacid])GGPSSGATLRHYYNWLTRQRY-NH2 [Compound 91, Y-Aib-E-G-T-F-T-S-D-Y-S-I-Aib-L-E-K-Q-A-Q-Aib-A-F-V-E-W-L-I-K(1,3)-GGPSSGATLRHYYNWLTRQRY-NH2.C20DA-gGlu-gGlu-gGlu-gGlu-gGlu-gGlu-eLys(1,2)]
